Assay results taken from patent US20250084063A1 (Incyte Corporation, priority 2023, published 2025).

Key:
Format in all cases: cell-based
MRGPRX2 [1] = target: T1, MRGPRX2 (Homo sapiens, UniProt Q96LB1); experiment: MRGPRX2 FLIPR calcium mobilization assay; parameters: host or cells: CHO-K1; details: CHO-K1 cells stably expressing human MRGPRX2; Ca2+ release, agonist Cortistatin-14 at EC80
T1 sequence (Q96LB1 1-330): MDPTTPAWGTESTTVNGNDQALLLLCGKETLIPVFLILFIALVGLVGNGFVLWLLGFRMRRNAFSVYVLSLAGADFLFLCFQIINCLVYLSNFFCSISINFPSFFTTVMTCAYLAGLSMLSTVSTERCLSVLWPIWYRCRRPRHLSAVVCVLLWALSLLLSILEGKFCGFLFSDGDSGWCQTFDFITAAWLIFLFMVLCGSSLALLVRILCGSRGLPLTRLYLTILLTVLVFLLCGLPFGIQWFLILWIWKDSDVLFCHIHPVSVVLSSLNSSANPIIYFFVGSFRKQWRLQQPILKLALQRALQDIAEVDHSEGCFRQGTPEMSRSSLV
Method: Example A. MRGPRX2 FLIPR Calcium Mobilization Assay
Chinese hamster ovary (CHO-K1) cells stably expressing human MRGPRX2 were purchased from Genescript (Piscataway, NJ). The cells were maintained in culture medium (Ham's F-12K) containing 10% (v/v) FBS, 200 μg/mL Zeocin, 100 units/mL penicillin G and 100 μg/mL streptomycin (Life Technologies, Carlsbad, CA). For the assay, the cells were harvested and resuspended with culture medium without Zeocin before plating at 8000 cells per well in 20 μL in 384-well black clear bottom cell culture plates (VWR, Radnor, PA). After 24 h culture at 37° C. and 5% CO2, the cells were loaded with 20 μL/well of calcium dye (FLIPR Calcium 6 Assay Kit, Molecular Devices, San Jose, CA) diluted in loading buffer (1×Hank's Balanced Salt Solution (HBSS), 5 mM probenecid, 20 mM 4-(2-hydroxyethyl)-1-piperazineethanesulfonic acid (HEPES), pH 7.4, VWR, Radnor, PA) followed with 45 min incubation at 37° C. and 40 min at room temperature in the dark. Cells were then treated with the addition of 10 uL/well test compounds with a range of increasing concentrations diluted in the assay buffer (1×HBSS, 20 mM HEPES, pH 7.4, VWR, Radnor, PA) with FLIPR Penta (Molecular Devices. San Jose, CA) and incubated for 30 min. at room temperature. Ca^2+ release was measured with FLIPR Penta with 10 seconds basal fluorescence measurement, then 12.5 μL of 5× agonist Cortistatin-14 (Tocris, Minneapolis, MN) at final concentration corresponding to the EC80 were added followed with continued fluorescence signal monitoring for an additional 110 seconds. The base line adjusted (median of first 10s base line) max value of the Relative Fluorescence Unit (RFU) was plotted against compound concentrations. Wells with no compound were served as the positive controls, and wells with high concentration of reference antagonist were used as negative controls. IC50 curves were globally fitted with 3- or 4-parameter Hill equation in a Genedata Screener (Genedata Basel, Switzerland).

MRGPRX2 [2] = target: T1, MRGPRX2; experiment: MRGPRX2 IP1 HTRF assay; parameters: host or cells: CHO-K1; details: CHO-K1 cells stably expressing human MRGPRX2; IP1 accumulation, agonist Cortistatin 14 1 μM
Text: Example B: MRGPRX2 IP1 HTRF Assay
This assay measures compound inhibition of myo-Inositol 1 phosphate (IP1) accumulation in CHO-K1 cells. Chinese hamster ovary (CHO-K1) cells stably expressing human MRGPRX2 were purchased from GenScript (Piscataway, NJ).
For the HTRF IP1 determination, an IP-One GqKit (Perkin Elmer Cisbio, Waltham, MA), which includes all reagents and buffers in this protocol, was used. The cells were maintained in culture medium (Ham's F-12K) containing 10% (v/v) FBS, and 200 μg/mL Zeocin. For the assay, the cells were harvested and resuspended in culture medium with 2% FBS and without Zeocin, then were passed through a 40 μm filter. Cells were added at 20000 cells in a 5 μL/well to a 384-well white small volume cell culture plate (Greiner VWR, Radnor, PA) which contained 50 nL/well of test compound serially diluted at a selected concentration range in DMSO. 5 μL/well of prepared 2× Stimulation Buffer2 was then added to plates and was incubated at 37° C. with 5% CO2 for 1 h. 5 μL/well of agonist Cortistatin 14 (Bio-TechneR&D Systems, Minneapolis, MN) in 1× Stimulation Buffer 2, for a 1 μM final concentration, was then added to plates and incubated at 37° C. with 5% CO2 for 1 h. 6 μL/well of 1:20 diluted Detection Reagent Mix (d2 and Cryptate) was added to the plates and incubated for 1 h in the dark. Plates were read on the PHERAstar microplate reader (BMG Labtech Cary, NC) to determine the HTRF ratio of the acceptor and donor emission signals. The IP1 concentrations were calculated from a standard curve following the IP-One GQ kit instructions. Wells with DMSO only and wells with high concentration of reference antagonist were used as controls for normalization. Compound IC50 curves were globally fitted with 3- or 4-parameter Hill equation in a Genedata Screener (Genedata Basel, Switzerland).

MRGPRX2 [3] = target: T1, MRGPRX2; experiment: MRGPRX2 β-Arrestin assay; parameters: host or cells: PathHunter CHO-K1; details: PathHunter CHO-K1 MRGPRX2 β-Arrestin cell line; agonist Cortistatin 14 0.25 μM
Text: Example C: MRGPRX2 β-Arrestin Assay
This assay measures compound inhibition of β-Arrestin recruitment, which is part of the G protein-independent pathway that results from the ligand-activated GPCR phosphorylation by specific GPCR kinases. The PathHunter CHO-K1 MRPGRX2 B-Arrestin Cell line stably expressing ProLink tagged MRGPRX2 and Enzyme Acceptor Tagged B-Arrestin was purchased from Eurofins DiscoverX, (Fremont, CA).
The cells were maintained in culture medium from the Europhins DiscoverX Cell Culture Kit-107 which includes FBS, hygromycin B and G418. For the assay, the cells were harvested and were resuspended with Cell Plating Reagent 2 (Eurofins DiscoverX). Cells were added 10000 cells in 25 µL/well to a 384-well black cell culture plate (Greiner VWR, Radnor, PA) which contained 125 nL/well of compound at a selected serially diluted concentration range or DMSO. The plate was incubated at 37° C. with 5% CO2 for 1 h. 2 μL/well of agonist Cortistatin 14 was diluted in Protein Dilution Buffer, (Eurofins DiscoverX) for a final concentration of 0.25 μM, was added and the plate was incubated at 37° C. with 5% CO2 for 90 min. 14 μL/well of Detection Reagent Mix (PathHunter Detection Kit, Eurofins DiscoverX) was added to the plates and further incubated for 1 h in the dark. Plates were read on the PHERAstar microplate reader (BMG Labtech Cary, NC) measuring luminescence 0.1 to 1 second per well. Data was normalized using DMSO only wells and wells with high concentration of reference antagonist as controls. Compound IC50 curves were globally fitted with 3- or 4-parameter Hill equation in a Genedata Screener (Genedata Basel, Switzerland).

Row | SMILES | IC50 (MRGPRX2 [1]) [nM] | IC50 (MRGPRX2 [2]) [nM] | IC50 (MRGPRX2 [3]) [nM]
1 | Fc1ccc(C2(CNc3cc(C(F)(F)F)nc4ccc(Cl)cc34)COC2)cc1 [Example 50, 6-Chloro-N-((3-(4-fluorophenyl)oxetan-3-yl)methyl)-2-(trifluoromethyl)quinolin-4-amine] | 0.1 to 100 | 0.1 to 100 | 
2 | CNC(=O)N1CC(CNc2cc(C(F)(F)F)nc3ccc(Cl)cc23)(c2ccc(F)cn2)C1 [Example 51, 3-(((6-Chloro-2-(trifluoromethyl)quinolin-4-yl)amino)methyl)-3-(5-fluoropyridin-2-yl)-N-methylazetidine-1-carboxamide] | 0.1 to 100 | 0.1 to 100 | 
3 | CNC1CCC(CNc2cc(C(F)(F)F)nc3ccc(Cl)cc23)(c2ccccc2)C1 (stereo not shown) [Example 55, 6-Chloro-N-((3-(methylamino)-1-phenylcyclopentyl)methyl)-2 (trifluoromethyl)quinolin-4-amine] | 0.1 to 100 | 0.1 to 100 | 
4 | Cc1ccc2nc(C(F)(F)F)cc(NCC3(c4ccc(F)cn4)CN(C(N)=O)C3)c2c1 [Example 56, 3-(5-Fluoropyridin-2-yl)-3-(((6-methyl-2-(trifluoromethyl)quinolin-4-yl)amino)methyl)azetidine-1-carboxamide] | 0.1 to 100 | 100 to 1000 | 
5 | N#Cc1ccc2nc(C(F)(F)F)cc(NCC3(c4ccc(F)cn4)CN(C(N)=O)C3)c2c1 [Example 58, 3-(((6-Cyano-2-(trifluoromethyl)quinolin-4-yl)amino)methyl)-3-(5-fluoropyridin-2-yl)azetidine-1-carboxamide] | 100 to 1000 | 100 to 1000 | 
6 | NC(=O)N1CC(CNc2cc(C(F)(F)F)nc3cccc(F)c23)(c2ccc(F)cn2)C1 [Example 60, 3-(((5-Fluoro-2-(trifluoromethyl)quinolin-4-yl)amino)methyl)-3-(5-fluoropyridin-2-yl)azetidine-1-carboxamide] | 100 to 1000 | > 1000 | 
7 | Cc1ccc2c(NCC3(c4ccc(F)cn4)CN(C(N)=O)C3)cc(C(F)(F)F)nc2c1 [Example 61, 3-(5-Fluoropyridin-2-yl)-3-(((7-methyl-2-(trifluoromethyl)quinolin-4-yl)amino)methyl)azetidine-1-carboxamide] | > 1000 | > 1000 | 
8 | Cc1cccc2nc(C(F)(F)F)cc(NCC3(c4ccc(F)cn4)CN(C(N)=O)C3)c12 [Example 62, 3-(5-Fluoropyridin-2-yl)-3-(((5-methyl-2-(trifluoromethyl)quinolin-4-yl)amino)methyl)azetidine-1-carboxamide] | > 1000 | > 1000 | 
9 | NC(=O)N1CC(CNc2cc(C(F)(F)F)nc3cc(C(F)(F)F)ccc23)(c2ccc(F)cn2)C1 [Example 63, 3-(((2,7-Bis(trifluoromethyl)quinolin-4-yl)amino)methyl)-3-(5-fluoropyridin-2-yl)azetidine-1-carboxamide] | 100 to 1000 | > 1000 | 
10 | NC(=O)N1CC(CNc2cc(C(F)(F)F)nc3ccncc23)(c2ccc(F)cc2)C1 [Example 65, 3-(4-Fluorophenyl)-3-(((2-(trifluoromethyl)-1,6-naphthyridin-4-yl)amino)methyl)azetidine-1-carboxamide] |  |  | 100 to 1000
11 | FC(F)(F)c1cc(NCC2(n3ccc(C(F)(F)F)n3)CNC2)c2cc(Cl)ccc2n1 [Example 68, 6-Chloro-2-(trifluoromethyl)-N-((3-(3-(trifluoromethyl)-1H-pyrazol-1-yl)azetidin-3-yl)methyl)quinolin-4-amine] |  |  | 100 to 1000
12 | [2H]C([2H])([2H])NC(=O)N1CC(CNc2cc(C(F)(F)F)nc3ccc(Cl)cc23)(n2ncc3c2CCC3)C1 [Example 69, 3-(((6-Chloro-2-(trifluoromethyl)quinolin-4-yl)amino)methyl)-3-(5,6-dihydrocyclopenta[c]pyrazol-1(4H)-yl)-N-(methyl-d3)azetidine-1-carboxamide] |  |  | 0.1 to 100
13 | NS(=O)(=O)N1CCC(CNc2cc(C(F)(F)F)nc3ccc(Cl)cc23)(c2ccc(F)cn2)CC1 [Example 100, 4-(((6-Chloro-2-(trifluoromethyl)quinolin-4-yl)amino)methyl)-4-(5-fluoropyridin-2-yl) piperidine-1-sulfonamide] | 0.1 to 100 | 0.1 to 100 | 
14 | N#Cc1cnn(C2(CNc3cc(C(F)(F)F)nc4ccc(Cl)cc34)CN(C(N)=O)C2)c1 [Example 101, 3-(((6-Chloro-2-(trifluoromethyl)quinolin-4-yl)amino)methyl)-3-(4-cyano-1H-pyrazol-1-yl)azetidine-1-carboxamide] | 0.1 to 100 | 0.1 to 100 | 
15 | COc1cnn(C2(CNc3cc(C(F)(F)F)nc4ccc(Cl)cc34)CN(C(N)=O)C2)c1 [Example 102, 3-(((6-Chloro-2-(trifluoromethyl)quinolin-4-yl)amino)methyl)-3-(4-methoxy-1H-pyrazol-1-yl)azetidine-1-carboxamide] | 0.1 to 100 | 100 to 1000 | 
16 | Cc1ccn(C2(CNc3cc(C(F)(F)F)nc4ccc(Cl)cc34)CN(C(N)=O)C2)n1 [Example 103, 3-(((6-Chloro-2-(trifluoromethyl)quinolin-4-yl)amino)methyl)-3-(3-methyl-1H-pyrazol-1-yl)azetidine-1-carboxamide] | 0.1 to 100 | 0.1 to 100 | 
17 | N#Cc1ccn(C2(CNc3cc(C(F)(F)F)nc4ccc(Cl)cc34)CN(C(N)=O)C2)n1 [Example 104, 3-(((6-Chloro-2-(trifluoromethyl)quinolin-4-yl)amino)methyl)-3-(3-cyano-1H-pyrazol-1-yl)azetidine-1-carboxamide] | 0.1 to 100 | 0.1 to 100 | 
